Experimental data as given in a melting point compilation (Tetko et al.; mined from patent text by program, amines drawn as free bases though some values may be those of a salt).

Q: With `Oc1ccccc1CNc1cncc(Br)c1` as the molecule, how does the melting point read?
A: Its melting point is 184 °C.

Q: Which melting point does the source give for `CCOc1ccc(Cc2cn(C3OC(COC(C)=O)C(OC(C)=O)C(OC(C)=O)C3OC(C)=O)c3cccc(Cl)c23)cc1` (stereo unspecified) here?
A: Its melting point is 166 to 169 °C.

Q: Which melting point does the source give for `CCc1noc(CC(O)c2ccccc2)c1C(=O)NC` (stereo unspecified) here?
A: The melting point was 135 to 137 °C.

Q: With `CC(C)OCN1CCN(Cc2ccc(Cl)nc2)C1=NC#N` as the molecule, how does the melting point read?
A: The melting point was 85 to 87 °C.

Q: With `CCCCOc1c(CNC(=O)OC(C)(C)C)n(CC(C)C)c(=O)c2ccc(-c3nc(C)c(C(=O)OCC)s3)cc12` as the molecule, how does the melting point read?
A: Its melting point is 146 to 147 °C.

Q: Which melting point does the source give for `Cc1nc(NC(=O)c2cnn3c(C(F)(F)F)cc(-c4ccc(C(F)(F)F)cc4)nc23)sc1S(=O)(=O)N(C)CCO` here?
A: The melting point was 266 °C.

Q: Which melting point does the source give for `CC(CS)C(=O)N1C(=O)CC[C@H]1C(=O)O` (stereo partly specified) here?
A: Its melting point is 101 to 108 °C.

Q: With `Cc1ccc(COC(=O)N2CCC[C@H]2C(=O)N[C@H](CO)C(C)C)cc1` as the molecule, how does the melting point read?
A: Its melting point is 122 to 124 °C.

Q: Which melting point does the source give for `CNC(=O)CCC12CC(c3ccccc31)c1ccccc12` here?
A: Its melting point is 200 to 201 °C.

Q: With `C=C(C)C(=O)OCCCCCCCCCCCOC(=O)c1cc(OC(=O)c2ccc(/C=C/C(=O)OC)cc2)ccc1O` as the molecule, how does the melting point read?
A: Its melting point is 51 °C.

Q: Which melting point does the source give for `O=[N+]([O-])c1cc(F)cc2c1OCC2` here?
A: Its melting point is 113 to 114 °C.

Q: With `Cc1c(NC(=O)c2ccc(-c3ccccc3)c(F)c2)ccc2cc(CN3CCCC3)cnc12` as the molecule, how does the melting point read?
A: Its melting point is 156 to 158 °C.

Q: For `COc1cc(C=O)cc(OC)c1Cl`, which melting point is on record?
A: The melting point was 112 to 113 °C.

Q: For `CN(C)C(N)=C(C#N)C#N`, which melting point is on record?
A: The melting point was 228 to 229 °C.

Q: Which melting point does the source give for `CCCCCC1Cc2cc(OCC(=O)O)c(Cl)c(Cl)c2C1=O` (stereo unspecified) here?
A: The melting point was 192 to 195 °C.

Q: For `CC(C(=O)O)c1cccc(C2(c3ccccc3)OCCO2)c1` (stereo unspecified), which melting point is on record?
A: Its melting point is 91 to 94 °C.

Q: For `COc1ccc(C(C)(C#N)CNC(=O)C(N)=O)cc1OC1CCCC1` (stereo unspecified), which melting point is on record?
A: Its melting point is 171 to 172 °C.

Q: For `Cc1ccc(C2=NC[C@@H](O)[C@H](c3ccccc3)O2)cc1` (racemic), which melting point is on record?
A: The melting point was 168 °C.

Q: For `Cn1c(CCSN2CCC3(CC2)CC(=O)c2cc(NS(C)(=O)=O)ccc2O3)cc(=O)n(C)c1=O`, which melting point is on record?
A: Its melting point is 198 to 201 °C.

Q: With `CCN1C(=O)Cc2cc3c(cc21)C(=O)CO3` as the molecule, how does the melting point read?
A: Its melting point is 181 to 184 °C.

Q: For `CC(=O)N1Cc2cccn2N(C)c2ccncc21`, which melting point is on record?
A: Its melting point is 125 to 130 °C.

Q: Which melting point does the source give for `CCCc1c(OCCCOc2ccc(C(=O)CCC(=O)O)c(Cl)c2Cl)ccc(C(C)=O)c1O` here?
A: The melting point was 119 to 123 °C.

Q: For `CN(C)C=Nn1cc(-c2ccc([N+](=O)[O-])o2)nn1`, which melting point is on record?
A: The melting point was 239 to 241 °C.

Q: For `O=C(O)C(=O)c1ccc(OCCCCSc2ccc3ccccc3c2)cc1`, which melting point is on record?
A: Its melting point is 113 to 115 °C.

Q: With `CC(C)C[C@H]1C[C@]2(O)C[C@@H](OC2=O)[C@@H]1OC(=O)c1ccccc1` as the molecule, how does the melting point read?
A: The melting point was 71 to 72 °C.

Q: For `O=C(c1ccccc1CBr)c1ccc(F)cc1CBr`, which melting point is on record?
A: Its melting point is 98 to 99 °C.

Q: With `O=C(NC(Cc1ccc(OCc2ccccc2)cc1)C(=O)O)c1cn2cc(-c3ccccc3Cl)ccc2n1` (stereo unspecified) as the molecule, how does the melting point read?
A: The melting point was 228 °C.

Q: Which melting point does the source give for `CC(=O)O[C@H]1[C@H](N2CCCNC2=NC#N)c2cc(C#N)ccc2OC1(C)C` (relative stereo) here?
A: The melting point was 245 to 246 °C.

Q: Which melting point does the source give for `CC(=O)c1nn[nH]c1-c1ccccc1` here?
A: Its melting point is 117 to 118 °C.

Q: Which melting point does the source give for `Nc1sc(CCC(=O)O)cc1C(=O)c1ccccc1Cl` here?
A: The melting point was 170 to 173 °C.

Q: Which melting point does the source give for `CCCc1c(OCCCO)ccc(C(C)=O)c1O` here?
A: Its melting point is 57 to 59 °C.

Q: Which melting point does the source give for `CN(c1cc2ccccc2s1)c1nc(=O)c2cccnc2s1` here?
A: The melting point was 220 to 221 °C.

Q: For `COc1cc2cc(C3=NNC(=O)CC3)sc2cc1OC`, which melting point is on record?
A: The melting point was 254 to 256 °C.

Q: Which melting point does the source give for `CCOC(=O)C(CC=Cc1ccccc1)(NC(C)=O)C(=O)OCC` here?
A: Its melting point is 70 to 75 °C.

Q: With `N#CC1=C2C(=NC1=O)c1c(Sc3ccc(N)cc3)ccc3c(Sc4ccc(N)cc4)ccc2c13` as the molecule, how does the melting point read?
A: The melting point was 288 to 290 °C.

Q: Which melting point does the source give for `Cc1cc(-c2ccccc2)co1` here?
A: Its melting point is 89 to 91 °C.

Q: With `COc1nc(OC)nc(-n2c(N)nc3cc(Cl)ccc32)n1` as the molecule, how does the melting point read?
A: The melting point was 293 to 296 °C.

Q: For `C=CCOc1ccccc1OCC(O)CNC1CCC(N2CCNC2=O)CC1` (stereo unspecified), which melting point is on record?
A: Its melting point is 154 to 155 °C.

Q: With `Cc1oc2ccccc2c1C(=O)c1ccc(Cl)c(S(N)(=O)=O)c1` as the molecule, how does the melting point read?
A: Its melting point is 183 °C.

Q: Which melting point does the source give for `CC12CCC(=O)C=C1CCC1C2CCC2(C)C1CCC2(O)C(N)=O` (stereo unspecified) here?
A: The melting point was 233 to 234 °C.

Q: With `CCOC(C#N)NC(=O)c1cccc(OC)c1` (stereo unspecified) as the molecule, how does the melting point read?
A: The melting point was 72 °C.

Q: Which melting point does the source give for `CN(C(=O)Nc1ccccc1F)C(Cl)C(Cl)(Cl)Cl` (stereo unspecified) here?
A: The melting point was 130 to 141 °C.

Q: Which melting point does the source give for `C[C@H](c1ccncn1)[C@@](O)(CO)c1ccc(F)cc1F` here?
A: Its melting point is 148 to 150 °C.

Q: With `Cn1c(=O)[nH]c2cc3[nH]c(-c4cccnc4)nc3cc21` as the molecule, how does the melting point read?
A: Its melting point is greater than 300 °C.

Q: With `CCC(=O)N1CCN(c2n[nH]c3ncnc(Nc4cccc(Cl)c4)c23)CC1` as the molecule, how does the melting point read?
A: Its melting point is 247 to 250 °C.

Q: With `COc1cc(OC)cc(-c2nc[nH]c2-c2ccc(OC)c(N)c2F)c1` as the molecule, how does the melting point read?
A: Its melting point is 118 to 120 °C.

Q: Which melting point does the source give for `COC=C(Oc1cccc(-c2ccc(Cl)cc2)n1)C(=O)OC` here?
A: The melting point was 50 to 54 °C.

Q: With `NC(=O)[C@@H]1[C@H](NC(=O)/C(=N\OCC(=O)OCc2ccc([N+](=O)[O-])cc2)c2csc(NC(=O)CCl)n2)C(=O)N1OCC(=O)OCc1ccc([N+](=O)[O-])cc1` as the molecule, how does the melting point read?
A: The melting point was 147 to 153 °C.

Q: Which melting point does the source give for `CC(C)(C#N)Cc1ccc(-c2ccc(CC(C)(C)C#N)cc2)cc1` here?
A: Its melting point is 174 to 182 °C.

Q: For `C1=C(c2nc3ccccc3o2)CCN(Cc2ccccc2)C1`, which melting point is on record?
A: Its melting point is 129 to 130 °C.

Q: Which melting point does the source give for `OC(CCl)CN(CC(O)CCl)c1ccccc1` (stereo unspecified) here?
A: Its melting point is 60 °C.
